Active and inactive are the calls of the source. The calls are words filed in the database; no cut-off is given here.
Legend:
MCF7/ADM [1] = assay: Induction of apoptosis in human MCF7/ADM cells assessed as increase in cleaved caspase-3 expression at 12.5 uM incubated for 24 hrs by Western blot analysis; assay type: functional, cell-based
[2] = Toxicity in BALB/c mouse xenografted with human MCF7/ADM cells assessed as kidney damage at 50 mg/kg, ip by H and E staining based analysis; assay type: organism-based; details: in vivo
[3] = Toxicity in BALB/c mouse xenografted with human MCF7/ADM cells assessed as tumor damage at 50 mg/kg, ip by H and E staining based analysis; assay type: organism-based; details: in vivo
[4] = target: T1, von Hippel-Lindau disease tumor suppressor/Phosphatidylinositol 4,5-bisphosphate 3-kinase catalytic subunit beta isoform (Homo sapiens, UniProt P42338+P40337); assay: PROTAC activity at PI3K-p110beta/VHL in human MCF7/ADM cells assessed as reduction in PI3K-p110beta level incubated for 12 to 36 hrs by Western blot analysis; assay type: cell-based; details: time 12-36 hrs
Target sequence in this assay (P40337 whole entry, looked up, canonical isoform): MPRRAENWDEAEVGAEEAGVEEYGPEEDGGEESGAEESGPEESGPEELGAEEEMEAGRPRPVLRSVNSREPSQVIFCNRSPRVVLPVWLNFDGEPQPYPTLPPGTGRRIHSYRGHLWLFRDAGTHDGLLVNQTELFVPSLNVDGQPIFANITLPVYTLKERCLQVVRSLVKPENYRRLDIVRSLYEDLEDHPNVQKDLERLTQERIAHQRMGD
Target sequence in this assay (P42338 whole entry, looked up, canonical isoform): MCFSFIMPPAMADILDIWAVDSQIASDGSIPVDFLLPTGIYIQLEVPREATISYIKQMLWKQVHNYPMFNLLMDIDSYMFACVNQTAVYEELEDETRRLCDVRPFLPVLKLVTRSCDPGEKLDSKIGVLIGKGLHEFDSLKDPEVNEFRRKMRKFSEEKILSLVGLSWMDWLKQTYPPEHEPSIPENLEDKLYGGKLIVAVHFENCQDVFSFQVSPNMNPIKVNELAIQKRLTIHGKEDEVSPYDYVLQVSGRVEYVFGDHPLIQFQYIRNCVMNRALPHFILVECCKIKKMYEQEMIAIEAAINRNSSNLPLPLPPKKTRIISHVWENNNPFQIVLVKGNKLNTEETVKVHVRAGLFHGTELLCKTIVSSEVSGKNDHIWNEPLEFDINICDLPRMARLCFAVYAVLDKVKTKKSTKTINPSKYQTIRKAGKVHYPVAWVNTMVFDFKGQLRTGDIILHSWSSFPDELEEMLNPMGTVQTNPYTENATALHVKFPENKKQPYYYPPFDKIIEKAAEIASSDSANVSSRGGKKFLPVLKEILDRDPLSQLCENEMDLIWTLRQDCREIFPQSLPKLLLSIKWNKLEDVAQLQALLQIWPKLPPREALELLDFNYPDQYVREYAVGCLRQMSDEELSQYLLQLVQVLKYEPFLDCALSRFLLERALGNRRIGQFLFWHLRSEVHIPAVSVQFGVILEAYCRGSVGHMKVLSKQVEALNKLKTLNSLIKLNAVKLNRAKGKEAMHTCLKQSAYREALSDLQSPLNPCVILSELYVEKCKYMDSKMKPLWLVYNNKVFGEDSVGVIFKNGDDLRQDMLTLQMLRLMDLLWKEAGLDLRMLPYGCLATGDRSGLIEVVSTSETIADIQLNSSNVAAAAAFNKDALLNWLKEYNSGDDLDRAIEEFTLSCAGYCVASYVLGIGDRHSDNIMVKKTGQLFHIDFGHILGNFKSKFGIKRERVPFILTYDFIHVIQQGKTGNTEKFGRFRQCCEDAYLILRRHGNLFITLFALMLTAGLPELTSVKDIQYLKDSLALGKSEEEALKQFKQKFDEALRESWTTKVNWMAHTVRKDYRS

[5] = target: T2, von Hippel-Lindau disease tumor suppressor/Phosphatidylinositol 4,5-bisphosphate 3-kinase catalytic subunit alpha isoform (Homo sapiens, UniProt P42336+P40337); assay: PROTAC activity at PI3K-p110alpha/VHL in human A549/DDP cells assessed as induction of PI3K-p110alpha degradation incubated for 24 hrs by Western blot analysis; assay type: cell-based; details: for Activity: dose 0.04-50 µM
[6] = target: T1, von Hippel-Lindau disease tumor suppressor/Phosphatidylinositol 4,5-bisphosphate 3-kinase catalytic subunit beta isoform; assay: PROTAC activity at PI3K-p110beta/VHL in human MCF7/ADM cells assessed as reduction in PI3K-p110beta level by Western blot analysis; assay type: cell-based; details: time <= 48.0 hrs
Target sequence in this assay (P40337 whole entry, looked up, canonical isoform): as the sequence (P40337 whole entry, looked up, canonical isoform) above
Target sequence in this assay (P42338 whole entry, looked up, canonical isoform): as the sequence (P42338 whole entry, looked up, canonical isoform) above

[7] = target: T2, von Hippel-Lindau disease tumor suppressor/Phosphatidylinositol 4,5-bisphosphate 3-kinase catalytic subunit alpha isoform; assay: PROTAC activity at PI3K-p110alpha/VHL in human A549/DDP cells assessed as reduction in PI3K-p110alpha level incubated for 24 hrs by Western blot analysis; assay type: cell-based; details: dose 0.04-50 µM
Target sequence in this assay (P40337 whole entry, looked up, canonical isoform): as the sequence (P40337 whole entry, looked up, canonical isoform) above
Target sequence in this assay (P42336 whole entry, looked up, canonical isoform): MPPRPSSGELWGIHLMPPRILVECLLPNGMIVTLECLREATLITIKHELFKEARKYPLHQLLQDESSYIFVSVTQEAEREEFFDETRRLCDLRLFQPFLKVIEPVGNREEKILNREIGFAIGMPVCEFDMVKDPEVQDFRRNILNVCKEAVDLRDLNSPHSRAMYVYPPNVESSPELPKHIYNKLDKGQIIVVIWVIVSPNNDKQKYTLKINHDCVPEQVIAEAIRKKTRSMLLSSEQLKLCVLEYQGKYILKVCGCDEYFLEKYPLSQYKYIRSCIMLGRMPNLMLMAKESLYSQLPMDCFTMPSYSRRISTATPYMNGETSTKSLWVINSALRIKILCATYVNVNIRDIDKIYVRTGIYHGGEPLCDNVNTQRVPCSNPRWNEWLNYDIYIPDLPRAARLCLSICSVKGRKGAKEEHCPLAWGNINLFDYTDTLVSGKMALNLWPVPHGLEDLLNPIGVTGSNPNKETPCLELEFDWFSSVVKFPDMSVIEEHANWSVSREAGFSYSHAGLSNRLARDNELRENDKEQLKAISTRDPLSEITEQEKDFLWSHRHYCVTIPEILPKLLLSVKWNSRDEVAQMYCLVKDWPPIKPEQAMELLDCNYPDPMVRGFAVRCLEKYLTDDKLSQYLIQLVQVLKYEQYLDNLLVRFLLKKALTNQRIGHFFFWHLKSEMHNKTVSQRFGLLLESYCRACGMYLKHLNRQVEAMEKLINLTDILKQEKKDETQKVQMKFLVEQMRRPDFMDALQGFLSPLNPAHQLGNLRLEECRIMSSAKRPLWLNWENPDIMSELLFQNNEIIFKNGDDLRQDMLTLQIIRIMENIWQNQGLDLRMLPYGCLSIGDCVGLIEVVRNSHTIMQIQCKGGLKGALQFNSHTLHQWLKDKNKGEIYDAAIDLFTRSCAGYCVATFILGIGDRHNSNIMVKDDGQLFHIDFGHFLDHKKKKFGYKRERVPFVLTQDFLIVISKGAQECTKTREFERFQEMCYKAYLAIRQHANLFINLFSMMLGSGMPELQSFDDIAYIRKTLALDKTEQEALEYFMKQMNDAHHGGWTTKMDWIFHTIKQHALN

MCF7/ADM [8] = assay: Upregulation of p-IRE1 expression in human MCF7/ADM cells at 0.25 to 25 uM incubated for 24 hrs by Western blot analysis; assay type: functional, cell-based; details: dose 0.25-25 µM
MCF7/ADM [9] = assay: Induction of apoptosis in human MCF7/ADM cells assessed as increase in cleaved caspase-9 expression at 12.5 uM incubated for 24 hrs by Western blot analysis; assay type: functional, cell-based
MCF7/ADM [10] = assay: Antitumor activity against human MCF7/ADM cells xenografted in BALB/c mouse assessed as increase in ATF6 expression in tumor at 50 mg/kg, ip by Western blot analysis; assay type: functional, organism-based
[11] = target: T1, von Hippel-Lindau disease tumor suppressor/Phosphatidylinositol 4,5-bisphosphate 3-kinase catalytic subunit beta isoform; assay: PROTAC activity at PI3K-p110beta/VHL in human MCF7/ADM cells assessed as reduction in PI3K-p110beta level incubated for 2 hrs by Western blot analysis; assay type: cell-based
Target sequence in this assay (P40337 whole entry, looked up, canonical isoform): as the sequence (P40337 whole entry, looked up, canonical isoform) above
Target sequence in this assay (P42338 whole entry, looked up, canonical isoform): as the sequence (P42338 whole entry, looked up, canonical isoform) above

[12] = target: T1, von Hippel-Lindau disease tumor suppressor/Phosphatidylinositol 4,5-bisphosphate 3-kinase catalytic subunit beta isoform; assay: PROTAC activity at PI3K-p110beta/VHL in human A549/DDP cells assessed as reduction in PI3K-p110beta level incubated for 12 to 36 hrs hrs by Western blot analysis; assay type: cell-based; details: time 12-36 hrs
Target sequence in this assay (P40337 whole entry, looked up, canonical isoform): as the sequence (P40337 whole entry, looked up, canonical isoform) above
Target sequence in this assay (P42338 whole entry, looked up, canonical isoform): as the sequence (P42338 whole entry, looked up, canonical isoform) above

[13] = Toxicity in BALB/c mouse xenografted with human MCF7/ADM cells assessed as change in AST level at 50 mg/kg, ip; assay type: organism-based; details: in vivo
[14] = Induction of apoptosis in human MCF7/ADM cells at 12.5 uM incubated for 24 hrs by Annexin V-FITC/PI staining based flow cytometry analysis (reference value: 5.20%); assay type: functional
MCF7/ADM [15] = assay: Induction of ROS level in human MCF7/ADM cells at 25 uM measured for 24 hrs by MitoSOX staining based analysis; assay type: functional, cell-based
A549 = assay: Antitumor activity against human A549 cells assessed as cell viability incubated for 24 hrs by MTT assay; assay type: functional, cell-based; details: A549, 24 h
MCF7/ADM [16] = assay: Antitumor activity against human MCF7/ADM cells xenografted in BALB/c mouse assessed as increase in caspase-12 expression in tumor at 50 mg/kg, ip by Western blot analysis; assay type: functional, organism-based
[17] = target: T1, von Hippel-Lindau disease tumor suppressor/Phosphatidylinositol 4,5-bisphosphate 3-kinase catalytic subunit beta isoform; assay: PROTAC activity at PI3K-p110beta/VHL in human MCF7/ADM cells assessed as reduction in PI3K-p110beta level at 25 uM incubated for 24 hrs by Western blot analysis relative to control; assay type: cell-based; set-up: scale not given: the % may be the effect or the level left
Target sequence in this assay (P40337 whole entry, looked up, canonical isoform): as the sequence (P40337 whole entry, looked up, canonical isoform) above
Target sequence in this assay (P42338 whole entry, looked up, canonical isoform): as the sequence (P42338 whole entry, looked up, canonical isoform) above

MCF7/ADM [18] = assay: Induction of apoptosis in human MCF7/ADM cells assessed as decrease in bcl-2 expression at 12.5 uM incubated for 24 hrs by Western blot analysis; assay type: functional, cell-based
A549/CDDP [19] = assay: Upregulation of PTEN expression in human A549/DDP cells at 25 uM incubated for 24 hrs by Western blot analysis; assay type: functional, cell-based
[20] = Toxicity in BALB/c mouse xenografted with human MCF7/ADM cells assessed as liver damage at 50 mg/kg, ip by H and E staining based analysis; assay type: organism-based; details: in vivo
[21] = target: T1, von Hippel-Lindau disease tumor suppressor/Phosphatidylinositol 4,5-bisphosphate 3-kinase catalytic subunit beta isoform; assay: PROTAC activity at PI3K-p110beta/VHL in human MCF7/ADM cells assessed as induction of PI3K-p110beta degradation at 25 uM measured for 24 hrs in presence of VHL ligand by Western blot analysis; assay type: cell-based
Target sequence in this assay (P40337 whole entry, looked up, canonical isoform): as the sequence (P40337 whole entry, looked up, canonical isoform) above
Target sequence in this assay (P42338 whole entry, looked up, canonical isoform): as the sequence (P42338 whole entry, looked up, canonical isoform) above

[22] = target: T1, von Hippel-Lindau disease tumor suppressor/Phosphatidylinositol 4,5-bisphosphate 3-kinase catalytic subunit beta isoform; assay: PROTAC activity at PI3K-p110beta/VHL in human A549/DDP cells assessed as reduction in PI3K-p110beta level incubated for 2 hrs by Western blot analysis; assay type: cell-based
[23] = target: T1, von Hippel-Lindau disease tumor suppressor/Phosphatidylinositol 4,5-bisphosphate 3-kinase catalytic subunit beta isoform; assay: PROTAC activity at PI3K-p110beta/VHL in human MCF7/ADM cells assessed as reduction in PI3K-p110beta level incubated for 24 hrs by Western blot analysis; assay type: cell-based; details: dose 0.04-50 µM
MCF7/ADM [24] = assay: Upregulation of ATF6 expression in human MCF7/ADM cells at 0.25 to 25 uM incubated for 24 hrs by Western blot analysis; assay type: functional, cell-based; details: dose 0.25-25 µM
[25] = target: T1, von Hippel-Lindau disease tumor suppressor/Phosphatidylinositol 4,5-bisphosphate 3-kinase catalytic subunit beta isoform; assay: PROTAC activity at PI3K-p110beta/VHL in human A549/DDP cells assessed as reduction in PI3K-p110beta level incubated for 24 hrs by Western blot analysis; assay type: cell-based
[26] = target: T2, von Hippel-Lindau disease tumor suppressor/Phosphatidylinositol 4,5-bisphosphate 3-kinase catalytic subunit alpha isoform; assay: PROTAC activity at PI3K-p110alpha/VHL in human MCF7/ADM cells assessed as reduction in PI3K-p110alpha mRNA level at 25 uM measured for 24 hrs by qRT-PCR analysis; assay type: cell-based
Target sequence in this assay (P40337 whole entry, looked up, canonical isoform): as the sequence (P40337 whole entry, looked up, canonical isoform) above
Target sequence in this assay (P42336 whole entry, looked up, canonical isoform): as the sequence (P42336 whole entry, looked up, canonical isoform) above

A549/CDDP [27] = assay: Upregulation of CHOP expression in human A549/DDP cells at 0.25 to 25 uM incubated for 24 hrs by Western blot analysis; assay type: functional, cell-based; details: dose 0.25-25 µM
[28] = Induction of apoptosis in human MCF7/ADM cells at 6.25 uM incubated for 24 hrs by Annexin V-FITC/PI staining based flow cytometry analysis (reference value: 5.20%); assay type: functional
[29] = Induction of apoptosis in human MCF7/ADM cells at 25 uM incubated for 24 hrs by Annexin V-FITC/PI staining based flow cytometry analysis (reference value: 5.20%); assay type: functional
[30] = target: T1, von Hippel-Lindau disease tumor suppressor/Phosphatidylinositol 4,5-bisphosphate 3-kinase catalytic subunit beta isoform; assay: PROTAC activity at PI3K-p110beta/VHL in human A549/DDP cells assessed as reduction in PI3K-p110beta mRNA level at 25 uM measured for 24 hrs by qRT-PCR analysis; assay type: cell-based
A549/CDDP [31] = assay: Cytotoxicity against human A549/DDP cells at 100 uM incubated for 24 hrs; assay type: functional, cell-based
A549/CDDP [32] = assay: Induction of apoptosis in human A549/DDP cells at 12.5 uM incubated for 24 hrs by Annexin V-FITC/PI staining based flow cytometry analysis (reference value: 4.27%); assay type: functional
A549/CDDP [33] = assay: Induction of apoptosis in human A549/DDP cells at 6.25 uM incubated for 24 hrs by Annexin V-FITC/PI staining based flow cytometry analysis (reference value: 4.27%); assay type: functional

Structure (SMILES) | Activity (MCF7/ADM [1]) | Activity [2] | Activity [3] | Activity [4] | Activity [5] | Activity [6] | Activity (MCF7/ADM [8]) | Activity (MCF7/ADM [9]) | Activity (MCF7/ADM [10]) | Activity [11] | Activity [12] | Activity [13] | Activity (MCF7/ADM [15]) | IC50 (A549) [µM] | Activity (MCF7/ADM [16]) | Activity (MCF7/ADM [18]) | Activity (A549/CDDP [19]) | Activity [20] | Activity [21] | Activity [22] | other results
Cc1cc(C(C)Nc2ccccc2C(=O)NCCOCCOCCC(=O)N[C@H](C(=O)N2C[C@H](O)C[C@H]2C(=O)NCc2ccc(-c3scnc3C)cc2)C(C)(C)C)c2nc(N3CCOCC3)cc(=O)n2c1 (stereo partly drawn) | Active | Non-toxic | Non-toxic | Active | Dose-dependent-effect | Time-dependent-effect | Active | Active | Active | Active | Active | Non-toxic | Active | 75.3 | Active | Active | Active | Non-toxic | Active | Active | Activity [7]: Dose-dependent-effect; Activity [14]: 15.59%; Activity [17]: 75%; Activity [23]: Dose-dependent-effect; Activity (MCF7/ADM [24]): Active; Activity ([25]; dose 0.04-50 µM): Dose-dependent-effect; Activity [26]: Active; Activity (A549/CDDP [27]): Active; Activity [28]: 6.88%; Activity [29]: 26.66%
Cc1cc(C(C)Nc2ccccc2C(=O)NCCCCCCC(=O)N[C@H](C(=O)N2C[C@H](O)C[C@H]2C(=O)NCc2ccc(-c3scnc3C)cc2)C(C)(C)C)c2nc(N3CCOCC3)cc(=O)n2c1 (stereo partly drawn) | Active | Non-toxic | Non-toxic | Active | Dose-dependent-effect | Time-dependent-effect | Active | Active | Active | Active | Active | Non-toxic | Active | 85.2 | Active | Active | Active | Non-toxic | Active | Active | Activity [30]: inactive; DC50 [5]: > 30 µM; Activity (A549/CDDP [31]): Active; Activity (A549/CDDP [32]): 15.76%; Activity (MCF7/ADM [24]): Active; DC50 [25]: 2.19 µM; Activity (A549/CDDP [33]): 8.73%; Activity (A549/CDDP [27]): Active

— ChEMBL document CHEMBL6134905, “Double Swords in One: Novel Selective PI3K/110β PROTAC Degraders for the Treatment of Multidrug-Resistant Cancer by Activating ERS and Inhibiting P-gp” (J Med Chem, 2025)
